# Source: patent US20110230423A1, “THERAPY AND MEDICAMENT USING INTEGRIN LIGANDS FOR TREATING CANCER” (priority 2008, published 2011)
# What was measured:
# [1] = tested on: U251 human glioblastoma cells; experiment: Rat orthotopic glioblastoma model radiotherapy, cilengitide scheduling experiments; assay type: in vivo, NIH rnu nude rats; conditions: individual animals
# Description: NIH rnu nude rats are anaesthetized, restrained, and injected intracerebrally 1 mm retro orbitally, 3 mm to the right of the bregma and at a depth of 2.5 mm with 5×10E5 U251 human glioblastoma cells suspended in 10 ul of culture medium, using a #2701 Hamilton syringe fitted with a 26 gauge needle, essentially as previously described (Engebraaten et al., 1999). After 14 days, cilengitide (4 mg/kg) is given as an intraperitoneal bolus in PBS, at various time (8 h, 4 h, 2 h, 1 h) prior to a single treatment with single, collimated, dorsal-ventral beam of 6 MV x-rays, so that 95-100% of the central axis dose of 25 Gy hit the tumor volume (Kim et al., 1999). Each of the 7 subsequent days the animals also received an identical i.p. bolus of cilengitide. The animals are maintained under ad libitum food and drink until they become moribund, or are sampled for tissue analysis (in the t-4 and t-8 h groups, where the animals are healthy past 230 days post tumor injection). A Kaplan-Meier survival curve is calculated and plotted (FIG. 1) from the raw data (Table 1). All animals in the RT monotherapy group died by 120 d.
# [2] = tested on: newly diagnosed glioblastoma (GBM); experiment: Phase I/IIa trial of cilengitide and temozolomide with concomitant radiotherapy, followed by maintenance, in newly diagnosed glioblastoma; assay type: in vivo, human
# Description: Purpose: To evaluate safety, toxicity, and efficacy of the combination of the cyclic RGD pentapeptide Cilengitide (=cyclo-(Arg-Gly-Asp-DPhe-NMe-Val)), an inhibitor of integrins avβ3 and avβ5, in addition to standard temozolomide (TMZ) and radiotherapy (RT).
# Patients and methods: Fifty-two pts (PS 0-1: 92%, 2: 8%; median age 57 yrs) after biopsy (n=9/17%) or tumor resection (n=43/83%) were treated with standard TMZ/RT (Stupp et al. NEJM 2005). In addition Cilengitide (500 mg i.v., 2×/week) was started one week before TMZ/RT and given throughout for the duration of chemotherapy or until progression. Primary endpoint was progression free survival rate at 6 months (target: 65%). Patients were followed with MRI every 2 months. Histopathologic diagnosis and MRI imaging were independently reviewed, MGMT promoter methylation status was assessed in 45 (86.5%) pts.
# brain metastases = conditions: hypofractionation approach with or without the radiosensitizer; cited from earlier work
compound,measurement,setting,value
"CC(C)[C@H]1C(=O)N[C@@H](CCCN=C(N)N)C(=O)NCC(=O)N[C@@H](CC(=O)O)C(=O)N[C@H](Cc2ccccc2)C(=O)N1C [Cilengitide, cyclo-(Arg-Gly-Asp-DPhe-NMeVal)]",Days Post Implant,[1]; cilengitide 4 mg/kg i.p. 4 hours pre-irradiation (Rt 25 Gy) plus 7 subsequent daily boluses,> 230 days
same,Days Post Implant,[1]; cilengitide 4 mg/kg i.p. 8 hours pre-irradiation (Rt 25 Gy) plus 7 subsequent daily boluses,> 230 days
same,Treatment related non-hematologic grade 3 toxicities (patients),"[2]; Cilengitide 500 mg i.v. 2x/week plus standard TMZ/RT, n=3/52",5.7%
same,Tolerability of the combination,[2]; Cilengitide and TMZ/RT,well tolerated
same,"sigmoid perforation (grade 2), patients",[2]; patient with a history of sigmoid diverticulosis,One
COCC(O)Cn1ccnc1[N+](=O)[O-] (stereo not drawn) [misonidazol],median survival,brain metastases,≤ 3.9 months
